Data taken from ChEMBL document CHEMBL1201862, “PubChem BioAssay data set” (2004).
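Protocol summary: plate cells (96-well), add compound at 5 concentrations, incubate 48 h, interpolate endpoints linearly. Here, GI50 denotes the concentration required for 50% inhibition of growth.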 The source made the active and inactive calls. Rule as the data show it: active = GI50 up to about 1.1 µM and inactive = higher.

How the values were obtained:
Experiment in all cases: inhibition of tumour cell growth, NCI panel, 48 h
[1] = system: SK-OV-3
[2] = system: Malme-3M
[3] = system: A498
[4] = system: SF-295
[5] = system: U-251
[6] = system: CCRF-CEM
[7] = system: HT-29
[8] = system: SR
[9] = system: A549
[10] = system: SK-MEL-5
[11] = system: SK-MEL-28
[12] = system: MOLT-4
[13] = system: KM12
[14] = system: SNB-75
[15] = system: MCF7
[16] = system: SF-539
[17] = system: UACC-62
[18] = system: 786-0
[19] = system: BT-549

SMILES | GI50 [1] | GI50 [2] | GI50 [3] | GI50 [4] | GI50 [5] | GI50 [6] | GI50 [7] | GI50 [8] | GI50 [9] | GI50 [10] | GI50 [11] | GI50 [12] | GI50 [13] | GI50 [14] | GI50 [15] | GI50 [16] | GI50 [17] | GI50 [18] | GI50 [19]
CN(CC(=O)O)c1ncc2c(n1)-c1ccccc1CC2 | > 100 µM (inactive) | > 100 µM (inactive) | > 100 µM (inactive) | > 100 µM (inactive) | > 100 µM (inactive) | > 100 µM (inactive) | > 100 µM (inactive) | > 100 µM (inactive) | > 100 µM (inactive) | > 100 µM (inactive) | > 100 µM (inactive) | > 100 µM (inactive) | > 100 µM (inactive) | 74.8 µM (inactive) | > 100 µM (inactive) | > 100 µM (inactive) | > 100 µM (inactive) | > 100 µM (inactive) | –
CC#CC(O)(C(=O)OC1CCC2CCC1N2C)C1CCCC1 (stereo not given) | > 100 µM (inactive) | > 100 µM (inactive) | – | > 100 µM (inactive) | > 10 µM (inactive) | – | > 100 µM (inactive) | > 100 µM (inactive) | > 100 µM (inactive) | > 100 µM (inactive) | > 100 µM (inactive) | > 100 µM (inactive) | > 100 µM (inactive) | > 100 µM (inactive) | > 100 µM (inactive) | > 100 µM (inactive) | > 100 µM (inactive) | > 100 µM (inactive) | –
c1ccc2c(c1)C(=Nc1ccc(N=C3c4ccccc4-c4ccccc43)cc1)c1ccccc1-2 | > 100 µM (inactive) | > 100 µM (inactive) | > 100 µM (inactive) | > 100 µM (inactive) | > 100 µM (inactive) | > 100 µM (inactive) | > 100 µM (inactive) | – | > 100 µM (inactive) | > 100 µM (inactive) | – | > 100 µM (inactive) | > 100 µM (inactive) | – | > 100 µM (inactive) | – | > 100 µM (inactive) | > 100 µM (inactive) | > 100 µM (inactive)
O=C1Oc2ccccc2C(=O)/C1=C/N1C(=O)/C(=C/c2ccc3c(c2)OCO3)SC1=S | 22.5 µM (inactive) | 19.8 µM (inactive) | 3.99 µM (inactive) | 22.9 µM (inactive) | 10 µM (inactive) | 26.1 µM (inactive) | 21.2 µM (inactive) | 15.8 µM (inactive) | 18.1 µM (inactive) | 15.7 µM (inactive) | 17.3 µM (inactive) | 17.5 µM (inactive) | 16.8 µM (inactive) | 11.1 µM (inactive) | 20.7 µM (inactive) | 11.5 µM (inactive) | 28.2 µM (inactive) | 43.4 µM (inactive) | –
COc1ccc(-c2nc(N)c(C#N)c3c2CCS(=O)(=O)c2ccc(C)cc2-3)cc1OC | – | 26.5 µM (inactive) | 23.3 µM (inactive) | – | 40.6 µM (inactive) | – | 30.1 µM (inactive) | 0.252 µM (active) | 26.4 µM (inactive) | 20.7 µM (inactive) | 55.2 µM (inactive) | – | 19.4 µM (inactive) | 23.7 µM (inactive) | – | – | 15.2 µM (inactive) | 29 µM (inactive) | 21.8 µM (inactive)
Nc1nc(N)c2cc(Sc3ccc4ccccc4c3)ccc2n1 | 13.8 µM (inactive) | – | 11.5 µM (inactive) | 0.509 µM (active) | 2.15 µM (inactive) | 0.705 µM (active) | 1.79 µM (inactive) | – | 0.343 µM (active) | 0.845 µM (active) | – | 2.8 µM (inactive) | 1.98 µM (inactive) | 14.4 µM (inactive) | 1.3 µM (inactive) | 1.73 µM (inactive) | 0.568 µM (active) | 0.479 µM (active) | 3.61 µM (inactive)
COc1ccc(C2SC(=N)Nc3c2c(C)nn3C(=O)c2ccccc2O)cc1 (stereo not given) | 5.32 µM (inactive) | 0.659 µM (active) | – | 3.98 µM (inactive) | 0.9 µM (active) | 2.04 µM (inactive) | 5.11 µM (inactive) | – | 0.412 µM (active) | 2.59 µM (inactive) | > 10 µM (inactive) | 1.81 µM (inactive) | 2.89 µM (inactive) | 0.308 µM (active) | 1.61 µM (inactive) | 0.27 µM (active) | 0.583 µM (active) | 1.31 µM (inactive) | 1.16 µM (inactive)
COc1ccc(C2=Nn3c(nnc(Cc4ccc(Cl)cc4)c3=O)SC2)cc1 | 55.3 µM (inactive) | > 100 µM (inactive) | 30.8 µM (inactive) | 34.3 µM (inactive) | 40.3 µM (inactive) | 38.3 µM (inactive) | 30.4 µM (inactive) | – | 51.3 µM (inactive) | 75.3 µM (inactive) | 74.6 µM (inactive) | 26.7 µM (inactive) | 35.8 µM (inactive) | – | 27.9 µM (inactive) | 37.8 µM (inactive) | 32.4 µM (inactive) | 45 µM (inactive) | 41.8 µM (inactive)
CC(C)=NN/C(=N\c1ccc(Cl)cc1)NS(=O)(=O)c1ccc(Oc2cccc(Cl)c2C#N)cc1 | – | > 100 µM (inactive) | – | > 100 µM (inactive) | > 100 µM (inactive) | > 100 µM (inactive) | > 100 µM (inactive) | – | > 100 µM (inactive) | > 100 µM (inactive) | > 100 µM (inactive) | > 100 µM (inactive) | > 100 µM (inactive) | – | > 100 µM (inactive) | – | > 100 µM (inactive) | > 100 µM (inactive) | > 100 µM (inactive)
COc1cc(C/N=c2/nc(N(C)C)ss2)cc(OC)c1OC | > 10 µM (inactive) | > 5.15 µM (inactive) | > 10 µM (inactive) | > 10 µM (inactive) | > 10 µM (inactive) | 0.189 µM (active) | > 10 µM (inactive) | 0.358 µM (active) | > 10 µM (inactive) | > 10 µM (inactive) | > 7.31 µM (inactive) | 2.81 µM (inactive) | > 7.59 µM (inactive) | > 10 µM (inactive) | > 5.78 µM (inactive) | > 10 µM (inactive) | > 10 µM (inactive) | 3.24 µM (inactive) | –
Oc1ccc(Br)cc1/C=N/C1CCCCC1 | 55.3 µM (inactive) | 27.6 µM (inactive) | > 100 µM (inactive) | 41.8 µM (inactive) | 12.4 µM (inactive) | 5.37 µM (inactive) | 42.3 µM (inactive) | – | > 100 µM (inactive) | 19.2 µM (inactive) | 43.3 µM (inactive) | 18.8 µM (inactive) | 29.8 µM (inactive) | – | 14.6 µM (inactive) | 38.7 µM (inactive) | 32 µM (inactive) | 22.9 µM (inactive) | 35.3 µM (inactive)
NNC(=O)Nc1cccnc1 | > 100 µM (inactive) | > 100 µM (inactive) | > 100 µM (inactive) | > 100 µM (inactive) | > 100 µM (inactive) | > 100 µM (inactive) | > 100 µM (inactive) | – | > 100 µM (inactive) | > 100 µM (inactive) | > 100 µM (inactive) | > 10 µM (inactive) | > 100 µM (inactive) | > 100 µM (inactive) | > 100 µM (inactive) | > 100 µM (inactive) | > 100 µM (inactive) | > 100 µM (inactive) | –
O=C(/C(=N/Nc1cn[nH]c(=O)c1Cl)c1ccccc1)c1ccccc1 | 39.5 µM (inactive) | 52.7 µM (inactive) | 14.7 µM (inactive) | 27.6 µM (inactive) | 26.9 µM (inactive) | 32.4 µM (inactive) | 20 µM (inactive) | – | 18.3 µM (inactive) | 28.2 µM (inactive) | 45.1 µM (inactive) | 23.2 µM (inactive) | 12.8 µM (inactive) | 8.79 µM (inactive) | 45.8 µM (inactive) | 22.6 µM (inactive) | 16 µM (inactive) | 16 µM (inactive) | –
CCN(CC)C(=S)SS(=O)(=O)c1ccc(Cl)cc1 | 64.3 µM (inactive) | 11.7 µM (inactive) | > 100 µM (inactive) | 38.7 µM (inactive) | 15.1 µM (inactive) | – | 17.8 µM (inactive) | 0.0796 µM (active) | 0.484 µM (active) | 9.04 µM (inactive) | 17.9 µM (inactive) | – | 11.7 µM (inactive) | – | – | 21.6 µM (inactive) | 20.5 µM (inactive) | 29.9 µM (inactive) | 34.4 µM (inactive)
CSc1ccc(C=C2N=C(c3ccccc3)N(c3cc(C(=O)c4ccccc4)ccc3N3C(=O)/C(=C/c4ccc(SC)cc4)N=C3c3ccccc3)C2=O)cc1 | > 100 µM (inactive) | – | 71.8 µM (inactive) | 44.1 µM (inactive) | 27 µM (inactive) | 5.69 µM (inactive) | 81.3 µM (inactive) | – | 43.5 µM (inactive) | 37.6 µM (inactive) | > 100 µM (inactive) | 23.7 µM (inactive) | 40 µM (inactive) | 16 µM (inactive) | > 100 µM (inactive) | 22.6 µM (inactive) | 44.9 µM (inactive) | 69.3 µM (inactive) | 45.6 µM (inactive)
O=C(O)CSc1nnc(-c2ccc(O)cc2)[nH]1 | > 100 µM (inactive) | > 100 µM (inactive) | > 100 µM (inactive) | > 100 µM (inactive) | > 100 µM (inactive) | > 100 µM (inactive) | > 100 µM (inactive) | > 100 µM (inactive) | > 100 µM (inactive) | > 100 µM (inactive) | > 100 µM (inactive) | > 100 µM (inactive) | > 100 µM (inactive) | 41 µM (inactive) | – | > 100 µM (inactive) | > 100 µM (inactive) | > 100 µM (inactive) | –
COc1cc(C(=O)NC(CCN)(c2ccccc2)c2ccccc2)cc(OC)c1OC | > 31.6 µM (inactive) | 13.5 µM (inactive) | 12.6 µM (inactive) | 21.6 µM (inactive) | 53.2 µM (inactive) | > 10 µM (inactive) | 16.8 µM (inactive) | 15.6 µM (inactive) | 21.3 µM (inactive) | 13 µM (inactive) | 13.8 µM (inactive) | 10.8 µM (inactive) | 29.2 µM (inactive) | 17 µM (inactive) | > 31.6 µM (inactive) | > 65.2 µM (inactive) | > 31.6 µM (inactive) | 22.9 µM (inactive) | –
